Assays:
[1] = analogues purified from pufferfish liver; patch clamp
[2] = tested on: anti-TTX monoclonal antibody; assay type: binding
mice = test: In vivo evaluation of OS on brain-related neurological functions
[3] = tested on: serotonin, histamine, opioid and nicotinic receptors, TRP channels or voltage-gated sodium, potassium or calcium channels; test: Selectivity of OS on other receptors and channels; assay type: cell-based
CB2 receptors = target: T1, CB2 receptors (Homo sapiens, UniProt P34972); test: Two-electrode voltage-clamp, CB2 with GIRK1/2 and RGS4 in Xenopus laevis oocytes; assay type: cell-based; settings: GIRK1/2, RGS4
T1 construct: expressed in transfected cells; host or cells: Xenopus laevis oocytes
T1 sequence (P34972 whole entry): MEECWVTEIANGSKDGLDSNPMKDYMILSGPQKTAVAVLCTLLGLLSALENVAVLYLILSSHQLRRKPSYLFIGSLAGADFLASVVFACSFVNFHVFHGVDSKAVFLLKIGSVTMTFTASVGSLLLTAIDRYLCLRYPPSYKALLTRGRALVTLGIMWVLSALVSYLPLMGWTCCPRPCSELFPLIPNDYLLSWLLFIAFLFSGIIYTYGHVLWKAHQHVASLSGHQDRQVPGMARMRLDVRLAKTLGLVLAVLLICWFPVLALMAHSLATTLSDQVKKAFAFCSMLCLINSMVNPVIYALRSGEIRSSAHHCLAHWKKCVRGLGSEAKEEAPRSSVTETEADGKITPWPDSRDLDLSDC
Description: (§1) Abstract: Cannabinoid receptors (CB1 and CB2) are promising targets for diverse diseases, such as pain, inflammation, and neurological diseases. However, only a few ligands of CB receptors have reached clinical application so far. In the present study, we focused on the venom of Stephanoconus snails and found an endocannabinoid-like molecule, oleoyl serotonin (OS), active on CB1 and CB2. To determine the effects of OS, CB1 and CB2 receptors were functionally expressed in Xenopus laevis oocytes, together with the G protein-coupled inwardly rectifier potassium channels (GIRK1/2), and a regulator of G protein signalling (RGS4). Ion currents were measured with a two-electrode voltage-clamp system. […] To the best of our knowledge, OS is the first venom-derived ligand modulating CB receptors. […]. To investigate the critical domains of the CB receptor for OS activity, we constructed a chimeric CB1/2 receptor by replacing the transmembrane domain V (TMV)-intracellular loop 3 (ICL3)-TMVI domain (TMV-ICL3-TMVI) of the CB2 receptor with that of the CB1 receptor. […] This study highlights the potential of animal venom components as a promising library for the discovery of novel CB receptor ligands.

CB1 receptors = target: T2, CB1 receptors (Homo sapiens, UniProt P21554); test: Two-electrode voltage-clamp, CB1-GIRK1/2-RGS4 system in Xenopus laevis oocytes; assay type: cell-based; settings: GIRK1/2 currents induced by WIN55,212-2, Xenopus oocytes
T2 construct: expressed in transfected cells; host or cells: Xenopus laevis oocytes
T2 sequence (P21554 whole entry): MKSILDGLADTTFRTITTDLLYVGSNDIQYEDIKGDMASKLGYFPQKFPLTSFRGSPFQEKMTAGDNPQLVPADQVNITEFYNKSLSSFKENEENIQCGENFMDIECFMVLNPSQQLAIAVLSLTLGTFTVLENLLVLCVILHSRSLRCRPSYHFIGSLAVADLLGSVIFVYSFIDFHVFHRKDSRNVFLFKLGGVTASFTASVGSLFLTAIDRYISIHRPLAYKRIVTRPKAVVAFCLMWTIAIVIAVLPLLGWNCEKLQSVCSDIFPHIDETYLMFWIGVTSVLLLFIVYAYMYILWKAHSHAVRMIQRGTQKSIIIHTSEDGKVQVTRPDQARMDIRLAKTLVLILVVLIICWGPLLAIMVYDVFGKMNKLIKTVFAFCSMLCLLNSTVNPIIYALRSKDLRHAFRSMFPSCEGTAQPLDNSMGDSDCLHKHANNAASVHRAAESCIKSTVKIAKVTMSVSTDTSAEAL
Description: as §1

[4] = target: T3, muscle-type α12βεδ nAChRs (Mus musculus, UniProt P02716+P04756+P20782); test: Nerve-evoked isometric contraction, block by cyclic imine toxins
T3 construct: skeletal muscle expressing α12βεδ nAChRs; from tissue; host or cells: isolated mouse phrenic-nerve-hemi-diaphragm muscle
T3 sequence (P09690 24-501): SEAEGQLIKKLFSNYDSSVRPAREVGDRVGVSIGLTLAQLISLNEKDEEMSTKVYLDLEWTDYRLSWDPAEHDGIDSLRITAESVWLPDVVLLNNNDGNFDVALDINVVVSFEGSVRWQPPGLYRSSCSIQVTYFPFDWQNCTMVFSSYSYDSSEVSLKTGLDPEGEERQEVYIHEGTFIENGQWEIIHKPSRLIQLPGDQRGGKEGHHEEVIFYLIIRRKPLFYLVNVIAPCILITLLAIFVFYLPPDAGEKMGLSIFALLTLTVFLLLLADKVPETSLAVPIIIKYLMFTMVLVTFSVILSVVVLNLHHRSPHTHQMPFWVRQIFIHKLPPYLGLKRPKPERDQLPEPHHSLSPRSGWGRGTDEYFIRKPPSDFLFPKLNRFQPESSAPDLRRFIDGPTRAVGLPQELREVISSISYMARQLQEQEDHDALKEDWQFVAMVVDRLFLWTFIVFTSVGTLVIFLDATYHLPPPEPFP
T3 sequence (P02716 25-520): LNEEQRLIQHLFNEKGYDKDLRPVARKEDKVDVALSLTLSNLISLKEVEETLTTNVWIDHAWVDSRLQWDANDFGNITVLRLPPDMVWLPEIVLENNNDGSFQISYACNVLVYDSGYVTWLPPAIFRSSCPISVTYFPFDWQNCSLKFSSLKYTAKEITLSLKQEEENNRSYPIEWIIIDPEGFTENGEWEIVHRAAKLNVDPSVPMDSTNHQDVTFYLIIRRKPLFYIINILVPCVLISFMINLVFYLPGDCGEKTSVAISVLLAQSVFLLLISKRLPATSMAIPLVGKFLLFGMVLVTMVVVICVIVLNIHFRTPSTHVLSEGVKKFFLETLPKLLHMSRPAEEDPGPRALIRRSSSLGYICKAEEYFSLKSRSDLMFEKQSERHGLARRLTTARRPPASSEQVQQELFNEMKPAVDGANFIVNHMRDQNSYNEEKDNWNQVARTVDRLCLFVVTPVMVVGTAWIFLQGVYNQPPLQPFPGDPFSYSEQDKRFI
T3 sequence (P04756 21-457): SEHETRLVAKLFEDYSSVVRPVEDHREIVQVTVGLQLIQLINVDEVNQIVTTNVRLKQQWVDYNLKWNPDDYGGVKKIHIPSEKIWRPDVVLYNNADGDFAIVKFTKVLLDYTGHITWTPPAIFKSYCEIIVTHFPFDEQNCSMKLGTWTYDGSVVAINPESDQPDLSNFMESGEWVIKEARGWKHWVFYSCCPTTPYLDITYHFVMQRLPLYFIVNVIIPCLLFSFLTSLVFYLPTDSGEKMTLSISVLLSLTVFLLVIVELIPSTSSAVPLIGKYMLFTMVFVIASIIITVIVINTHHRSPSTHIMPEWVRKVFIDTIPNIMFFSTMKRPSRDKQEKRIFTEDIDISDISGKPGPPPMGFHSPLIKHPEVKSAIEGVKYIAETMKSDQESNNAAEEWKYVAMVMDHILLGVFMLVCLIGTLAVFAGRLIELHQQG
T3 sequence (P20782 21-493): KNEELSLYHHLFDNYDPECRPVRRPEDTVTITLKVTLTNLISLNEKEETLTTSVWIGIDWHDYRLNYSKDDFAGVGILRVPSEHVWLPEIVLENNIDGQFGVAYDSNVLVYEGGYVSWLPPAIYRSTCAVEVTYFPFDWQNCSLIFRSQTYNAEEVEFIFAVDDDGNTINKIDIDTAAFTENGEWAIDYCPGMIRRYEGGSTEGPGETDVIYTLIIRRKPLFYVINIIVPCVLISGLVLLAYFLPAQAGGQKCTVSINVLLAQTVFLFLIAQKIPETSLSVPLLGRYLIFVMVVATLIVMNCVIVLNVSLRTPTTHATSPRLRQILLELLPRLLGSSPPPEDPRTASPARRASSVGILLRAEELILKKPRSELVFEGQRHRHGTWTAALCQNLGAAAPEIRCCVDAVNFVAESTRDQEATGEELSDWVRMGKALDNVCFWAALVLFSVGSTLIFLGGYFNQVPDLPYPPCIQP

human mitoTRPV1 = human mitoTRPV1 (Homo sapiens, UniProt Q8NER1); assay type: cell-based
human mitoTRPV1, sequence (Q8NER1 434-839): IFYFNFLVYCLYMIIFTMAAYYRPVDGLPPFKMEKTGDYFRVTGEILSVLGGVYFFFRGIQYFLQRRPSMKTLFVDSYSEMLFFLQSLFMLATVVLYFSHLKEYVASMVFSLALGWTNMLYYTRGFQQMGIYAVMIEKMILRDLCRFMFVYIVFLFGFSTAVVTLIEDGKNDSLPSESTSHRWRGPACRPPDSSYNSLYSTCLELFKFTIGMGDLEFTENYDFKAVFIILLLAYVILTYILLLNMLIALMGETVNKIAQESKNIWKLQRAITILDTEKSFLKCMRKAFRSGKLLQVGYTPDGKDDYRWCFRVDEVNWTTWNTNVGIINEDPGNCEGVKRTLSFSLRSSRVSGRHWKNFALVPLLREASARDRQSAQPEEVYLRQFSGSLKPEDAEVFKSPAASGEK

[5] = tested on: mice injected with venoms; test: Recovery from neuroparalysis in mice injected with neurotoxic snake venoms; assay type: in vivo
Description: (§2) Abstract: Envenomation by snakes is a major neglected human disease even though it affects millions of people with sequelae and kills hundreds of thousands of them. A large toll is taken by snakes that inject neurotoxic venoms capable of inducing complete degeneration of motor axon terminals with rapid development of a peripheral neuroparalysis with severe respiratory deficit. The major venom component causing this degeneration are presynaptic acting PLA2s that hydrolyse phospholipids in lysophospholipids and fatty acids that induce large entry of Ca^2+ into the neuronal cytosol. This leads to the activation of endogenous hydrolases that cause a complete degeneration of the motor axon terminals, which is followed by a regeneration program, only partially known in molecular terms. We recently identified two types of membrane receptors involved in the regeneration of the paralysed neuromuscular junction (NMJ). Here we report that this paralysis activates a proregenerative molecular axis, consisting of the CXCR4 receptor expressed at the stump of degenerated motor axon terminals and by the release of its ligand CXCL12α by surrounding Schwann cells. […]

[6] = Description: as §2
[7] = tested on: isolated mouse phrenic-nerve-hemi-diaphragm muscle preparations; test: Nerve-evoked isometric contraction, reversal of CiTX neuromuscular block; settings: 100 µM, in continuous presence of GYM-A, PnTX-A, PnTX-G or PteTX-1

5,6,11-trideoxyTTX
toxicity (toxicity equivalency factors, TEFs) [1]: lower
cross-reactivity (cross-reactivity factors, CRFs) [2]: lower

CCCCCCCC/C=C\CCCCCCCC(=O)NCCc1c[nH]c2ccc(O)cc12 [OS, oleoyl serotonin]
effect on brain-related neurological functions (mice): anxiolytic effect
activity on other receptors and channels [3]: does not show significant activity
mode of action on CB2 receptors (CB2 receptors): non-competitive blocker
mode of action on CB1 receptors (CB1 receptors): competitive antagonist

C=CC1=C[C@@H]2[C@@H]3O[C@]4(C[C@H]5CCC[C@@]6(CC[C@@]7(O[C@@H](CC[C@@]7(C)O)CC(=C)CCCC7=NC[C@H](C)[C@@H](C)C[C@@]72CC1)O6)O5)C[C@@H](C)[C@@H](O)[C@H]3O4 [PnTX-G]
type of inhibition of α12βεδ nAChRs [4]: competitive and reversible inhibitors

C=C(C)[C@]12C[C@@H](C)[C@@]34O[C@](Cc5ccccc5)(O[C@@H]1[C@@H]3C=C(COC(=O)Cc1ccc(O)c(OC)c1)C[C@]1(O)C(=O)C(C)=C[C@@H]41)O2 [RTX, resiniferatoxin]
mitochondrial Ca2+ efflux (human mitoTRPV1): enhanced a Ca^2+ efflux from the mitochondria
mitochondrial temperature (human mitoTRPV1): significant reduction in the mitochondrial temperature

CCCn1nc(C(=O)N2CCCCC2)c2c1CCC(NCCc1ccncc1)C2 (centres unmarked) [NUCC-390]
time of recovery from neuroparalysis ([5]; determined by imaging, electrophysiological methods and lung ventilation): shortens the time of recovery from neuroparalysis
efficacy in mice injected with venoms ([5]; venoms of three Bungarus species, Oxyuranus scutellatus, Micrurus nigrocinctus, Vipera ammodytes and V. aspis): very effective
blood brain barrier crossing [6]: does not cross the blood brain barrier
toxicity [6]: non-toxic

5,11-dideoxyTTX
cross-reactivity (cross-reactivity factors, CRFs) [2]: lower

Nc1ccncc1N [3,4-DAP, 3,4-Diaminopyridine]
reversal of neuromuscular block caused by the CiTX [7]: completely reverses

CC1=C[C@@H](C2=C(C)[C@@H]3/C=C(\C)[C@@H](O)CC[C@@H]4C[C@@H](C)[C@@H](O4)/C(C)=C/CCC4=NCCC[C@@]43CC2)OC1=O [GYM-A]
type of inhibition of α12βεδ nAChRs [4]: competitive and reversible inhibitors

C=C1CCCC2=NC[C@H](C)[C@@H](C)C[C@@]23CCC(C(=O)O)=C[C@@H]3[C@@H]2O[C@]3(C[C@H]4CCC[C@@]5(CC[C@@]6(O[C@@H](CC[C@@]6(C)O)C1)O5)O4)C[C@@H](C)[C@@H](O)[C@H]2O3 [PnTX-A]
type of inhibition of α12βεδ nAChRs [4]: competitive and reversible inhibitors

— article PMC10975748
